Consider 17 compounds from patent US11974969B2, “Artificially synthesized sphingosine derivative lipoid monomer and use of same for delivering nucleic acid” (INSTITUTE OF BASIC MEDICAL SCIENCES CHINESE ACADEMY OF …, priority 2018, dated 2024).

In the assay the test system is HEK293T cells. Briefly: Flow cytometry (CFlow): delivery of FAM-labeled single-stranded PGY-sRNA-6 into HEK293T cells by different concentrations of single sphingosine derivative (Example 1). Conditions: for delivery of single-stranded PGY-sRNA-6 into 293T cells (fluorescence shift compared to free uptake group): different concentrations: 3.75, 12.5, 37.5 μg single lipid, 0.1 nmol FAM-labeled sRNA, final 100 nM, 9 hours, flow cytometry; for Lipid delivery group (different concentrations of lipids) 3.75 μg/mL: single sphingosine derivative 3.75 μg/mL; for Lipid delivery group (different concentrations of lipids) 3.75 μg/mL / Lipid delivery group (different concentrations of lipids) 12.5 μg/mL / Lipid delivery group (different concentrations of lipids) 37.5 μg/mL: FAM-labeled PGY-ssRNA-6 100 nM, 293T cells, fluorescence shift by flow cytometry; for Lipid delivery group (different concentrations of lipids) 12.5 μg/mL: single sphingosine derivative 12.5 μg/mL; for Lipid delivery group (different concentrations of lipids) 37.5 μg/mL: single sphingosine derivative 37.5 μg/mL. Format: cell-based, human. The method, then: 2.1 5 μl of small RNA (Ribobio, 20 μM, as shown in Table 2) and 95 μL of DEPC (Sigma) treated water were added into a 1.5 ml EP tube and mixed well. Then a certain amount of single lipid or lipid composition in chloroform solution (as shown in Table 1) was added and fully mixed by sucking and blowing;
2.2 The system was fully mixed and was heated in a water bath at 90° C. for 15 minutes;
2.3 The system was taken out and cooled down to room temperature.
4.3 The human embryonic kidney cell line HEK293T and human monocyte THP-1 cells used in the experiment were cultured to logarithmic growth phase, and then plated into 12-well plates with a cell density of 6×10^5/1 mL medium/well. The 12-well plate (1 mL medium/well) was incubated overnight (12 h) at 37° C., followed by subsequent experiments.
4.4 The experiment groups were as follows: • 1) Naïve group: untreated cells. This group served as a blank control group. • 2) Free uptake group: […] of 5′-FAM labeled small RNA solution (storage concentration is 20 μM) was directly added. This group served as a negative control group; • 3) Lipid nucleic acid mixture treatment group: The mixture of the lipid prepared in step 2 and the 5′-FAM-labeled small RNA was added into the cells and mixed well. The final concentration of small RNA is 100 nM.
4.5 After co-incubation with cells for 6 h/9 h, the cells were washed three times with PBS. The cells were re-suspended with PBS (self-prepared). The flow cytometer Accuri® C6 instrument (purchased from BD, US) was used to detect the fluorescence intensity of the cells in the sample wells. Implementation method: the software CFlow Plus used in the flow cytometer Accuri® C6 instrument detection was opened, the instrument was washed with cleaning solution for 3 minutes, and then washed with double-distilled water for 5 minutes. The injection of blank group samples was started while setting the number of cells unlimited. The injection of Naïve group samples was stopped when the number of cells detected was 10000 events. The live cell group in the fluorescence spectrum (abscissa: FSC-A, ordinate: SSC-A) was circled as gate P1. With the number of cells set as limited, the detection was stopped when the number of cells in gate P1 reached 10000 events. The fluorescence shift value was obtained in the fluorescence spectrum (abscissa: fluorescence channel FLA-1, ordinate: SSC-A).
1) Conditions of the boiling method: to 100 μL FAM-labeled single-stranded PGY-sRNA-6 solution was added corresponding amount of lipid solution, and heated at 90° C. for 15 min;
2) Experimental conditions: the final concentration of small RNA was 100 nM. 9 hours after being added to the cells, the amount of single-stranded PGY-sRNA-6 that entered into the cells was compared by detecting the fluorescence shift using flow cytometry technology. For the detailed protocols, see “Flow cytometry technology (CFlow) determined the uptake amount of nucleic acid that is delivered into cells by lipid”. All experiments were performed in triplicates.
Background: A flow cytometer gives signals particle by particle.

Consider `CCCCCCCCCCCCCCC[C@@H](O)[C@@H](N)CO` (stereo in doubt) [So-71, (2S,3R)-2-amino-1,3-Octadecanediol], for which the “delivery of single-stranded PGY-sRNA-6 into 293T cells (fluorescence shift compared to free uptake group)” value is “deliver”, the “Lipid delivery group (different concentrations of lipids) 3.75 μg/mL” value was found to be 3.60%, the “Lipid delivery group (different concentrations of lipids) 12.5 μg/mL” value is given as 6.20% and the “Lipid delivery group (different concentrations of lipids) 37.5 μg/mL” value was 8.80%.

As for `CCCCCCCCCCCCCCCCC(=O)N[C@@H](CO)[C@H](O)CCCCCCCCCCCCCCC` [So-1, N-heptadecanoyl-D-erythro-Dihydrosphingosine], the “delivery of single-stranded PGY-sRNA-6 into 293T cells (fluorescence shift compared to free uptake group)” value is “deliver”, the “Lipid delivery group (different concentrations of lipids) 3.75 μg/mL” value stood at 1.60%, the “Lipid delivery group (different concentrations of lipids) 12.5 μg/mL” value stood at 1.50% and the “Lipid delivery group (different concentrations of lipids) 37.5 μg/mL” value was determined as 1.40%.

Regarding `CCCCCCCCCCCCC/C=C/[C@@H](O)[C@H](CO)NC(=O)CCCCCNC(=O)CCCC[C@@H]1SC[C@@H]2NC(=O)N[C@@H]21` [So-3, N-hexanoyl-biotin-D-erythro-Sphingosine], the “delivery of single-stranded PGY-sRNA-6 into 293T cells (fluorescence shift compared to free uptake group)” value is “deliver”, the “Lipid delivery group (different concentrations of lipids) 3.75 μg/mL” value was found to be 1.40%, the “Lipid delivery group (different concentrations of lipids) 12.5 μg/mL” value came to 2.10% and the “Lipid delivery group (different concentrations of lipids) 37.5 μg/mL” value is 3.40%.

For the compound `CCCCCCCCCCCCC/C=C/[C@@H](O)[C@H](CO)N(C)C` [So-4, N,N-Dimethylsphingosine (d18:1)], the “delivery of single-stranded PGY-sRNA-6 into 293T cells (fluorescence shift compared to free uptake group)” value is “deliver”, the “Lipid delivery group (different concentrations of lipids) 3.75 μg/mL” value is recorded as 1.70%, the “Lipid delivery group (different concentrations of lipids) 12.5 μg/mL” value came to 2.20% and the “Lipid delivery group (different concentrations of lipids) 37.5 μg/mL” value was found to be 0.00%.

Regarding `CCCCCCCCCCCCC/C=C/[C@@H](O)[C@@H](N)COP(=O)(O)O` [So-5, Sphingosine-1-Phosphoric Acid], the “delivery of single-stranded PGY-sRNA-6 into 293T cells (fluorescence shift compared to free uptake group)” value is “deliver”, the “Lipid delivery group (different concentrations of lipids) 3.75 μg/mL” value is on record as 2.80%, the “Lipid delivery group (different concentrations of lipids) 12.5 μg/mL” value was found to be 1.60% and the “Lipid delivery group (different concentrations of lipids) 37.5 μg/mL” value amounted to 2.40%.

Take `CCC/C=C\CCCCCCCCCC[C@@H](O)[C@H](C)N` [So-7, 14Z-1-Deoxysphingosine (d18:1)]: the “delivery of single-stranded PGY-sRNA-6 into 293T cells (fluorescence shift compared to free uptake group)” value is “deliver”, the “Lipid delivery group (different concentrations of lipids) 3.75 μg/mL” value was 1.20%, the “Lipid delivery group (different concentrations of lipids) 12.5 μg/mL” value stood at 0.20% and the “Lipid delivery group (different concentrations of lipids) 37.5 μg/mL” value came to 4.30%.

As to `CCCCCCCCCCCCCCCC(=O)C(N)CO.Cl` (centres unmarked) [So-8, 3-keto Dihydrosphingosine], the “delivery of single-stranded PGY-sRNA-6 into 293T cells (fluorescence shift compared to free uptake group)” value is “deliver”, the “Lipid delivery group (different concentrations of lipids) 3.75 μg/mL” value was 3.60%, the “Lipid delivery group (different concentrations of lipids) 12.5 μg/mL” value came to 4.50% and the “Lipid delivery group (different concentrations of lipids) 37.5 μg/mL” value came out at 1.90%.

On to `CCCCCCCCCCCCCCCCCC(=O)N[C@@H](CO)[C@H](O)CCCCCCCCCCCCCCC` [So-9, N-octadecanoyl-D-erythro-Dihydrosphingosine], for which the “delivery of single-stranded PGY-sRNA-6 into 293T cells (fluorescence shift compared to free uptake group)” value is recorded as “deliver”, the “Lipid delivery group (different concentrations of lipids) 3.75 μg/mL” value came out at 3.30%, the “Lipid delivery group (different concentrations of lipids) 12.5 μg/mL” value worked out at 2.60% and the “Lipid delivery group (different concentrations of lipids) 37.5 μg/mL” value is recorded as 2.70%.

For `CCCCCCCCCCCCCCCC(=O)N[C@@H](CO)[C@H](O)CCCCCCCCCCCCCCC` [So-10, N-hexadecanoyl-D-erythro-Dihydrosphingosine], the “delivery of single-stranded PGY-sRNA-6 into 293T cells (fluorescence shift compared to free uptake group)” value was “deliver”, the “Lipid delivery group (different concentrations of lipids) 3.75 μg/mL” value stood at 2.10%, the “Lipid delivery group (different concentrations of lipids) 12.5 μg/mL” value was 3.40% and the “Lipid delivery group (different concentrations of lipids) 37.5 μg/mL” value was 2.50%.

For `CCCCCCCCCCCCCCC[C@@H](O)[C@H](CO)N(C)C` [So-11, N,N-dimethyl-D-erythro-Dihydrosphingosine], the “delivery of single-stranded PGY-sRNA-6 into 293T cells (fluorescence shift compared to free uptake group)” value is recorded as “deliver”, the “Lipid delivery group (different concentrations of lipids) 3.75 μg/mL” value is recorded as 3.60%, the “Lipid delivery group (different concentrations of lipids) 12.5 μg/mL” value is on record as 7.40% and the “Lipid delivery group (different concentrations of lipids) 37.5 μg/mL” value is 12.70%.

Consider `CCCCCCCCCCCCCCC[C@@H](O)[C@H](CO)NC(=O)CCCCCCC` [So-12, N-octanoyl-D-erythro-Dihydrosphingosine], for which the “delivery of single-stranded PGY-sRNA-6 into 293T cells (fluorescence shift compared to free uptake group)” value is “deliver”, the “Lipid delivery group (different concentrations of lipids) 3.75 μg/mL” value was 5.60%, the “Lipid delivery group (different concentrations of lipids) 12.5 μg/mL” value is on record as 2.30% and the “Lipid delivery group (different concentrations of lipids) 37.5 μg/mL” value is listed as 1.60%.

As to `CCCCCCCCCCCCC/C=C/[C@@H](O)[C@H](CO)NC(=O)CCCCCCCCCCC` [So-13, N-Lauroyl-D-erythro-Sphingosine], the “delivery of single-stranded PGY-sRNA-6 into 293T cells (fluorescence shift compared to free uptake group)” value is on record as “deliver”, the “Lipid delivery group (different concentrations of lipids) 3.75 μg/mL” value was found to be 3.40%, the “Lipid delivery group (different concentrations of lipids) 12.5 μg/mL” value came out at 3.20% and the “Lipid delivery group (different concentrations of lipids) 37.5 μg/mL” value was 5.20%.

In the case of `CCCCCCCCCCCCC/C=C/[C@@H](O)[C@H](CO)NC(=O)CCCCCCCCCCCCCCCCCCCCCCCCCCCCCO` [So-14, ω-hydroxy-C30 Sphingosine (d18:1/30:0)], the “delivery of single-stranded PGY-sRNA-6 into 293T cells (fluorescence shift compared to free uptake group)” value was “deliver”, the “Lipid delivery group (different concentrations of lipids) 3.75 μg/mL” value stood at 4.40%, the “Lipid delivery group (different concentrations of lipids) 12.5 μg/mL” value came out at 3.30% and the “Lipid delivery group (different concentrations of lipids) 37.5 μg/mL” value stood at 4.30%.

With `CCCCCCCCCCCCCC[C@@H](O)[C@@H](N)COP(=O)(O)O` [So-15, dihydro-D-erythro-Sphingosine-C17-1-phosphate], the “delivery of single-stranded PGY-sRNA-6 into 293T cells (fluorescence shift compared to free uptake group)” value was “deliver”, the “Lipid delivery group (different concentrations of lipids) 3.75 μg/mL” value was 4.70%, the “Lipid delivery group (different concentrations of lipids) 12.5 μg/mL” value stood at 1.90% and the “Lipid delivery group (different concentrations of lipids) 37.5 μg/mL” value worked out at 2.40%.

Consider `CCCCCCCCCCCCC/C=C/[C@@H](O)[C@@H](N)CO` [So-26, D-erythro-Sphingosine C-18], for which the “delivery of single-stranded PGY-sRNA-6 into 293T cells (fluorescence shift compared to free uptake group)” value is listed as “deliver”, the “Lipid delivery group (different concentrations of lipids) 3.75 μg/mL” value came out at 0.20%, the “Lipid delivery group (different concentrations of lipids) 12.5 μg/mL” value is 3.80% and the “Lipid delivery group (different concentrations of lipids) 37.5 μg/mL” value worked out at 0.50%.

`CCCCCCCCCCCCCCC[C@H](O)[C@H](N)CO` [So-46, C18 L-erythro Sphinganine (d18:0)]: the “delivery of single-stranded PGY-sRNA-6 into 293T cells (fluorescence shift compared to free uptake group)” value is listed as “deliver”, the “Lipid delivery group (different concentrations of lipids) 3.75 μg/mL” value turned out to be 0.20%, the “Lipid delivery group (different concentrations of lipids) 12.5 μg/mL” value turned out to be 0.30% and the “Lipid delivery group (different concentrations of lipids) 37.5 μg/mL” value came to 6.90%.

`CCCCCCCCCCCCC/C=C/[C@@H](O)[C@@H](N)CO[C@@H]1O[C@H](CO)[C@@H](O)[C@H](O)[C@H]1O` [So-49, 1-β-D-Glucosylsphingosine (synthetic)]: the “delivery of single-stranded PGY-sRNA-6 into 293T cells (fluorescence shift compared to free uptake group)” value was “deliver”, the “Lipid delivery group (different concentrations of lipids) 3.75 μg/mL” value is 0.50%, the “Lipid delivery group (different concentrations of lipids) 12.5 μg/mL” value turned out to be 1.70% and the “Lipid delivery group (different concentrations of lipids) 37.5 μg/mL” value came out at 7.40%.
